Reference: the CheMixHub viscosity set
Several values for one entry are separate records, joined by “and”; a condition that tells them apart may be missing. Identical values can stand only once.

Test: xn = mol fraction of the nth substance listed

CCCCC/C=C\C/C=C\CCCCCCCC(=O)OCC(COC(=O)CCCCCCC/C=C\C/C=C\CCCCC)OC(=O)CCCCCCC/C=C\C/C=C\CCCCC + c1ccccc1
viscosity [mPa·s], 101.3 kPa
Conditions	x1 = 0.000427	x1 = 0.000515	x1 = 0.000838	x1 = 0.001044	x1 = 0.001751	x1 = 0.004505	x1 = 0.007049	x1 = 0.009645
298.15 K	0.6136	0.6153	0.6216	0.6257	0.6401	0.6974	0.7485	0.8054
303.15 K	0.5723	0.5739	0.5797	0.5836	0.597	0.6502	0.6975	0.7492
308.15 K	0.535	0.5365	0.5419	0.5455	0.558	0.6077	0.6515	0.6986

ClCCCCCCCl + Cc1ccccc1C
viscosity [mPa·s], 101 kPa
Conditions	x1 = 0.09207	x1 = 0.1778	x1 = 0.2577	x1 = 0.3658	x1 = 0.469	x1 = 0.5509	x1 = 0.6697	x1 = 0.7481	x1 = 0.8853
308.15 K	0.731	0.797	0.859	0.954	1.049	1.131	1.253	1.336	1.493
313.15 K	0.689	0.75	0.809	0.901	0.994	1.073	1.191	1.272	1.419
318.15 K	0.652	0.708	0.767	0.848	0.932	1.001	1.1	1.169	1.287

Cc1cccc(C)c1O + C[N+](C)(C)CCO.[Cl-]
298.15 K, 101.33 kPa
Conditions	viscosity
x1 = 0.7	151.2 mPa·s
x1 = 0.8	86.79 mPa·s and 61.87 mPa·s and 54.12 mPa·s
x1 = 0.9	50.22 mPa·s

Cc1ccc(NC(=O)NC(C)CCCC(C)C)cc1NC(=O)NC(C)CCCC(C)C (centres undefined) + CCCCC
Conditions	viscosity [mPa·s]
293.15 K, 100 kPa, x1 = 0.0002	461

C=C(C)C(=O)OC + ClC(Cl)Cl
303.15 K, 101 kPa
Conditions	viscosity [mPa·s]
x1 = 0.0522	0.5364
x1 = 0.1301	0.5505
x1 = 0.3102	0.5767
x1 = 0.4132	0.5808
x1 = 0.5161	0.5747
x1 = 0.7435	0.5589
x1 = 0.8591	0.542

C=C(C)C(=O)OC + CC(C)(C)O
viscosity [mPa·s], 101.3 kPa
Conditions	298.15 K	308.15 K
x1 = 0.0571	3.463	2.088
x1 = 0.1587	2.316	1.51
x1 = 0.256	1.652	1.15
x1 = 0.3589	1.217	0.898
x1 = 0.4561	0.956	0.738
x1 = 0.4983	0.873	0.686
x1 = 0.5567	0.782	0.627
x1 = 0.6571	0.672	0.555
x1 = 0.7563	0.608	0.511
x1 = 0.841	0.58	0.491
x1 = 0.9335	0.573	0.486
